Reference: the supplement of paper PMC10307832

Assays:
Experiment in all cases: relative viability (nuclei count vs DMSO), 5 days (fraction); higher = more cells survive
HCC-366 = system: HCC-366
Summary of the method: (§1)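 Lung cancer cell lines, seeded in 1536-well plates, were treated the following day by pin tool with a single drug or with five library-drug doses (not always all listed) in √10 steps on top of a fixed anchor-drug dose. Cells were fixed and nuclei stained in one step after 5 days, and nuclei were counted. Relative viability is the nuclei count for treated wells divided by that for vehicle wells, reported as medians of duplicate plates.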

NCI-H460 = system: NCI-H460
Summary of the method: as §1

NCI-H647 = system: NCI-H647
Summary of the method: as §1

PC-14 = system: PC-14
Summary of the method: as §1

NCI-H441 = system: NCI-H441
Summary of the method: as §1

NCI-H1755 = system: NCI-H1755
Summary of the method: as §1

NCI-H2347 = system: NCI-H2347
Summary of the method: as §1

NCI-H596 = system: NCI-H596
Summary of the method: as §1

UMC-11 = system: UMC-11
Summary of the method: as §1

NCI-H2023 = system: NCI-H2023
Summary of the method: as §1

NCI-H2405 = system: NCI-H2405
Summary of the method: as §1

NCI-H1437 = system: NCI-H1437
Summary of the method: as §1

A-427 = system: A-427
Summary of the method: as §1

H3255 = system: H3255
Summary of the method: as §1

PC-3 [JPC-3] = system: PC-3 [JPC-3]
Summary of the method: as §1

LCLC-103H = system: LCLC-103H
Summary of the method: as §1

HCC-44 = system: HCC-44
Summary of the method: as §1

ABC-1 = system: ABC-1
Summary of the method: as §1

NCI-H3122 = system: NCI-H3122
Summary of the method: as §1

NCI-H23 = system: NCI-H23
Summary of the method: as §1

LXF-289 = system: LXF-289
Summary of the method: as §1

NCI-H2009 = system: NCI-H2009
Summary of the method: as §1

Q: How did the relative viability (HCC-366; first compound 0.2 µM) turn out when `COCC1(CO)C(=O)C2CCN1CC2` (stereo not drawn) [PRIMA-1MET] + Cc1cc(Nc2cc(N3CCN(C)CC3)nc(Sc3ccc(NC(=O)C4CC4)cc3)n2)n[nH]1 [Tozasertib] (partner 0.1 µM) was run?
A: 0.109

Q: And the relative viability (HCC-366; first compound 0.6325 µM)?
A: 0.107

Q: And the relative viability (HCC-366; first compound 2 µM)?
A: 0.107

Q: And the relative viability (HCC-366; first compound 6.325 µM)?
A: 0.209

Q: And the relative viability (HCC-366; first compound 20 µM)?
A: 0.0297

Q: What about the relative viability (NCI-H460; first compound 0.2 µM) of the same molecule?
A: 0.443

Q: What about the relative viability (NCI-H460; first compound 0.6325 µM) of the same molecule?
A: 0.312

Q: What about the relative viability (NCI-H460; first compound 2 µM) of the same molecule?
A: 0.311

Q: What about the relative viability (NCI-H460; first compound 6.325 µM) of the same molecule?
A: 0.5

Q: What about the relative viability (NCI-H460; first compound 20 µM) of the same molecule?
A: 0.0183

Q: What about the relative viability (NCI-H647; first compound 0.2 µM) of the same molecule?
A: 0.615

Q: And the relative viability (NCI-H647; first compound 0.6325 µM)?
A: 0.324

Q: What about the relative viability (NCI-H647; first compound 2 µM) of the same molecule?
A: 0.263

Q: What about the relative viability (NCI-H647; first compound 6.325 µM) of the same molecule?
A: 0.543

Q: And the relative viability (NCI-H647; first compound 20 µM)?
A: 0.0988

Q: And the relative viability (PC-14; first compound 0.2 µM)?
A: 0.629

Q: What about the relative viability (PC-14; first compound 0.6325 µM) of the same molecule?
A: 0.55

Q: What about the relative viability (PC-14; first compound 2 µM) of the same molecule?
A: 0.519

Q: And the relative viability (PC-14; first compound 6.325 µM)?
A: 0.714

Q: What about the relative viability (PC-14; first compound 20 µM) of the same molecule?
A: 0.386

Q: And the relative viability (NCI-H441; first compound 0.2 µM)?
A: 0.629

Q: And the relative viability (NCI-H441; first compound 0.6325 µM)?
A: 0.667

Q: And the relative viability (NCI-H441; first compound 2 µM)?
A: 0.77

Q: And the relative viability (NCI-H441; first compound 6.325 µM)?
A: 0.743

Q: And the relative viability (NCI-H441; first compound 20 µM)?
A: 0.309

Q: And the relative viability (NCI-H1755; first compound 0.2 µM)?
A: 0.699

Q: And the relative viability (NCI-H1755; first compound 0.6325 µM)?
A: 0.596

Q: And the relative viability (NCI-H1755; first compound 2 µM)?
A: 0.509

Q: What about the relative viability (NCI-H1755; first compound 6.325 µM) of the same molecule?
A: 0.554

Q: What about the relative viability (NCI-H1755; first compound 20 µM) of the same molecule?
A: 0.455

Q: What about the relative viability (NCI-H2347; first compound 0.2 µM) of the same molecule?
A: 0.566

Q: What about the relative viability (NCI-H2347; first compound 0.6325 µM) of the same molecule?
A: 0.531

Q: And the relative viability (NCI-H2347; first compound 2 µM)?
A: 0.237

Q: What about the relative viability (NCI-H2347; first compound 6.325 µM) of the same molecule?
A: 0.516

Q: What about the relative viability (NCI-H2347; first compound 20 µM) of the same molecule?
A: 0.433

Q: And the relative viability (NCI-H596; first compound 0.2 µM)?
A: 0.96

Q: What about the relative viability (NCI-H596; first compound 0.6325 µM) of the same molecule?
A: 0.803

Q: And the relative viability (NCI-H596; first compound 2 µM)?
A: 0.869

Q: What about the relative viability (NCI-H596; first compound 6.325 µM) of the same molecule?
A: 1.02

Q: What about the relative viability (NCI-H596; first compound 20 µM) of the same molecule?
A: 0.102

Q: What about the relative viability (UMC-11; first compound 0.2 µM) of the same molecule?
A: 0.215

Q: What about the relative viability (UMC-11; first compound 0.6325 µM) of the same molecule?
A: 0.183

Q: And the relative viability (UMC-11; first compound 2 µM)?
A: 0.195

Q: And the relative viability (UMC-11; first compound 6.325 µM)?
A: 0.193

Q: What about the relative viability (UMC-11; first compound 20 µM) of the same molecule?
A: 0.201

Q: And the relative viability (NCI-H2023; first compound 0.2 µM)?
A: 0.461

Q: And the relative viability (NCI-H2023; first compound 0.6325 µM)?
A: 0.327

Q: And the relative viability (NCI-H2023; first compound 2 µM)?
A: 0.389

Q: What about the relative viability (NCI-H2023; first compound 6.325 µM) of the same molecule?
A: 0.359

Q: What about the relative viability (NCI-H2023; first compound 20 µM) of the same molecule?
A: 0.35

Q: What about the relative viability (NCI-H2405; first compound 0.2 µM) of the same molecule?
A: 0.735

Q: What about the relative viability (NCI-H2405; first compound 0.6325 µM) of the same molecule?
A: 0.812

Q: What about the relative viability (NCI-H2405; first compound 6.325 µM) of the same molecule?
A: 0.667

Q: What about the relative viability (NCI-H2405; first compound 20 µM) of the same molecule?
A: 0.329

Q: What about the relative viability (NCI-H1437; first compound 0.2 µM) of the same molecule?
A: 0.41

Q: What about the relative viability (NCI-H1437; first compound 0.6325 µM) of the same molecule?
A: 0.408

Q: And the relative viability (NCI-H1437; first compound 2 µM)?
A: 0.407

Q: And the relative viability (NCI-H1437; first compound 6.325 µM)?
A: 0.411

Q: What about the relative viability (NCI-H1437; first compound 20 µM) of the same molecule?
A: 0.407

Q: And the relative viability (A-427; first compound 0.2 µM)?
A: 0.163

Q: What about the relative viability (A-427; first compound 0.6325 µM) of the same molecule?
A: 0.201

Q: And the relative viability (A-427; first compound 2 µM)?
A: 0.203

Q: What about the relative viability (A-427; first compound 6.325 µM) of the same molecule?
A: 0.186

Q: And the relative viability (A-427; first compound 20 µM)?
A: 0.175

Q: And the relative viability (H3255; first compound 0.2 µM)?
A: 0.807

Q: And the relative viability (H3255; first compound 0.6325 µM)?
A: 0.765

Q: What about the relative viability (H3255; first compound 2 µM) of the same molecule?
A: 0.461

Q: And the relative viability (H3255; first compound 6.325 µM)?
A: 0.615

Q: What about the relative viability (H3255; first compound 20 µM) of the same molecule?
A: 0.505

Q: What about the relative viability (PC-3 [JPC-3]; first compound 0.2 µM) of the same molecule?
A: 0.996

Q: And the relative viability (PC-3 [JPC-3]; first compound 0.6325 µM)?
A: 0.856

Q: And the relative viability (PC-3 [JPC-3]; first compound 2 µM)?
A: 0.857

Q: And the relative viability (PC-3 [JPC-3]; first compound 6.325 µM)?
A: 0.89

Q: And the relative viability (PC-3 [JPC-3]; first compound 20 µM)?
A: 0.873

Q: What about the relative viability (LCLC-103H; first compound 0.2 µM) of the same molecule?
A: 0.554

Q: What about the relative viability (LCLC-103H; first compound 0.6325 µM) of the same molecule?
A: 0.453

Q: What about the relative viability (LCLC-103H; first compound 2 µM) of the same molecule?
A: 0.393

Q: And the relative viability (LCLC-103H; first compound 6.325 µM)?
A: 0.419

Q: What about the relative viability (LCLC-103H; first compound 20 µM) of the same molecule?
A: 0.161

Q: And the relative viability (HCC-44; first compound 0.2 µM)?
A: 1.18

Q: And the relative viability (HCC-44; first compound 0.6325 µM)?
A: 0.958

Q: And the relative viability (HCC-44; first compound 2 µM)?
A: 0.811

Q: And the relative viability (HCC-44; first compound 6.325 µM)?
A: 1.01

Q: And the relative viability (HCC-44; first compound 20 µM)?
A: 0.827

Q: What about the relative viability (ABC-1; first compound 0.2 µM) of the same molecule?
A: 0.243

Q: And the relative viability (ABC-1; first compound 0.6325 µM)?
A: 0.188

Q: And the relative viability (ABC-1; first compound 2 µM)?
A: 0.17

Q: What about the relative viability (ABC-1; first compound 6.325 µM) of the same molecule?
A: 0.145

Q: What about the relative viability (ABC-1; first compound 20 µM) of the same molecule?
A: 0.259

Q: And the relative viability (NCI-H3122; first compound 0.2 µM)?
A: 0.524

Q: And the relative viability (NCI-H3122; first compound 0.6325 µM)?
A: 0.361

Q: What about the relative viability (NCI-H3122; first compound 6.325 µM) of the same molecule?
A: 0.388

Q: And the relative viability (NCI-H3122; first compound 20 µM)?
A: 0.337

Q: And the relative viability (NCI-H23; first compound 0.2 µM)?
A: 0.507

Q: What about the relative viability (NCI-H23; first compound 0.6325 µM) of the same molecule?
A: 0.312

Q: And the relative viability (NCI-H23; first compound 2 µM)?
A: 0.371

Q: And the relative viability (NCI-H23; first compound 6.325 µM)?
A: 0.292

Q: What about the relative viability (NCI-H23; first compound 20 µM) of the same molecule?
A: 0.097

Q: What about the relative viability (LXF-289; first compound 0.2 µM) of the same molecule?
A: 0.217

Q: What about the relative viability (LXF-289; first compound 0.6325 µM) of the same molecule?
A: 0.173

Q: And the relative viability (LXF-289; first compound 2 µM)?
A: 0.16

Q: What about the relative viability (LXF-289; first compound 6.325 µM) of the same molecule?
A: 0.175

Q: What about the relative viability (LXF-289; first compound 20 µM) of the same molecule?
A: 0.192

Q: What about the relative viability (NCI-H2009; first compound 0.2 µM) of the same molecule?
A: 0.846

Q: And the relative viability (NCI-H2009; first compound 0.6325 µM)?
A: 0.742

Q: And the relative viability (NCI-H2009; first compound 2 µM)?
A: 0.948

Q: And the relative viability (NCI-H2009; first compound 6.325 µM)?
A: 0.726

Q: What about the relative viability (NCI-H2009; first compound 20 µM) of the same molecule?
A: 0.0462
